Data published in patent US20040081682A1, “Transdermal system (tds) that contain inhibitors of phosphodiesterase lV” (priority 2000, published 2004).

Assay: Pharmacokinetic study of humans (transdermal TDS E vs. intravenous infusion, serum RIA)
Details: human, in vivo
Description: Pharmacokinetic Study of Humans
The above-described formulation E was tested on twelve healthy males at the age of 20 to 42 years with normal body weight, whereby for 72 hours in each case, three transdermal formulations of 10 cm^2 each with 5 mg of (R)-(−)-5-(4-methoxyphenyl-3-propoxy)-5-methyl-2-oxazolidinone were simultaneously applied on the lower back area. After 72 hours, the transdermal formulation was removed and within one week of washing-out time, the concentration of the active ingredient in the serum was determined per RIA. The measured serum levels of the active ingredient produced an average transdermal substance flow of 0.49±0.7 μg/cm^2/h, at maximum serum levels of 0.88 ng/ml in the time interval of 29±10 hours.
Based on the pronounced plateau phase, which was achieved after the administration of the TDS, at the time of the reduction of TDS after three days, it was still possible to measure mesopram concentrations in the range of 65±18% of the maximum levels. […] The AUC values as well as other pharmacokinetic parameters are found in Table 3. In a comparison test with intravenous administration of a total of 0.2 mg of (R)-(−)-5-(4-methoxyphenyl-3-propoxy)-5-methyl-2-oxazolidinone within one hour, a multiple of higher serum levels was measured that was […]. One hour after the infusion was completed, the mean serum levels dropped to 1.15±0.44 ng·ml·l. Later on, the serum levels dropped off four hours after completion of the infusion to achieve a level of 0.39±0.17 ng·ml·l, after 8 hours 0.17±0.09 ng·ml·l, and after 24 hours 0.08±0.08 ng·ml·l. The essential pharmacokinetic parameters after i.v. administration of mesopram are depicted in Tab. 3. The comparison test with infusion was performed on the same test subjects as the transdermal administration. […]

Cl (clearance): 5.1 ± 1.8
f (absolute bioavailability): 100%
ιη (half-life): 2.5 ± 0.9 h
Substance: (R)-(−)-5-(4-methoxyphenyl-3-propoxy)-5-methyl-2-oxazolidinone [mesopram]
